ChEMBL document CHEMBL5042549, “Discovery of Inhibitors of the Lipopolysaccharide Transporter MsbA: From a Screening Hit to Potent Wild-Type Gram-Negative Activity” (J Med Chem, 2022)
≈ marks a conversion by molar mass, not a printed value.

What was measured:
[1] = Lipophilicity, logD of compound by shake flask method; assay type: physicochemical; details: octanol/water
[2] = Inhibition of Escherichia coli MsbA preincubated for 10 mins followed by ATP addition and incubated for 1 hr by fluorescence polarization assay
[3] = test system: Escherichia coli; experiment: Antibacterial activity against wild type Escherichia coli CFT073 (ATCC 700928) assessed as bacterial growth by broth microdilution assay; assay type: functional
[4] = test system: Klebsiella pneumoniae; experiment: Antibacterial activity against wild type Klebsiella pneumoniae MGH78578 (ATCC 700721) assessed as bacterial growth inhibition by broth microdilution assay; assay type: functional
[5] = test system: Enterobacter cloacae; experiment: Antibacterial activity against wild type Enterobacter cloacae (ATCC 13047) assessed as bacterial growth inhibition by broth microdilution assay; assay type: functional
[6] = test system: Escherichia coli; experiment: Antibacterial activity against wild type Escherichia coli MG1655 msbA-cKO lptD (imp4213) expressing Escherichia coli MsbA assessed as bacterial growth inhibition by broth microdilution assay; assay type: functional
[7] = test system: Escherichia coli; experiment: Antibacterial activity against wild type Escherichia coli MG1655 msbA-cKO lptD (imp4213) expressing Acinetobacter baumannii MsbA assessed as bacterial growth inhibition by broth microdilution assay; assay type: functional
[8] = test system: Escherichia coli; experiment: Selectivity ratio of MIC for Escherichia coli MG1655 msbA-cKO lptD (imp4213) […]; assay type: functional
[9] = test system: A549; experiment: Cytotoxicity against human A549 cells at 50 uM; assay type: toxicity, cell-based; details: a549, 50 µM
[10] = test system: Jurkat; experiment: Cytotoxicity against human Jurkat cells at 50 uM; assay type: toxicity, cell-based
[11] = test system: HEK293; experiment: Cytotoxicity against human HEK293 cells at 50 uM; assay type: toxicity, cell-based; details: hek293, 50 µM
[12] = test system: Escherichia coli; experiment: Antibacterial activity against wild type Escherichia coli MG1655 carrying lptD (imp4213) assessed as bacterial growth inhibition by broth microdilution assay; assay type: functional

logD [1]	IC50 [2]	MIC [3]	Structure (SMILES)	also measured
4.3	2 nM	12 µM	C[C@H](Oc1ccc2ncc(/C=C/c3nn[nH]n3)c(C3CC3)c2c1)c1c(Cl)cccc1Cl	MIC [4]: 12 µM (≈ 5.43 µg/mL); MIC [5]: 25 µM (≈ 11.3 µg/mL); MIC [6]: < 0.1 µM; MIC [7]: 50 µM (≈ 22.6 µg/mL); Selectivity ratio [8]: > 500; Activity [9]: Non-Toxic; Activity [10]: Non-Toxic; Activity [11]: Non-Toxic
2.7	6 nM	> 100 µM	C[C@H](Oc1ccc2ncc(-c3ccn(CCC(=O)O)n3)c(C3CC3)c2c1)c1c(Cl)cccc1Cl	–
3.2	20 nM	> 100 µM	C[C@H](Oc1ccc2nnc(/C=C/C(=O)O)c(C3CC3)c2c1)c1c(Cl)ccc(F)c1Cl	–
2.8	14 nM	63 µM	C[C@H](Oc1ccc2ncc(/C=C/C(=O)O)c(C3CC3)c2c1)c1c(Cl)ccc(N)c1Cl	–
2.8	20 nM	79 µM	C[C@H](Oc1cc(CC#N)c2ncc(/C=C/C(=O)O)c(C3CC3)c2c1)c1c(Cl)ccc(F)c1Cl	–
3.6	290 nM	> 100 µM	C[C@H](Oc1ccc2ncc(/C=C/C(=O)O)c(N(C)C)c2c1)c1c(Cl)ccc(F)c1Cl	–
5	> 10000 nM	> 100 µM	C[C@H](Oc1cccc(C2CC2)c1)c1c(Cl)ccc(F)c1Cl	MIC [12]: > 100 µM
2	2200 nM	> 100 µM	C[C@H](Oc1ccc2ncc(/C=C/C(=O)O)c(-n3ccnc3)c2c1)c1c(Cl)ccc(F)c1Cl	–
2.5	140 nM	> 100 µM	C[C@H](Oc1ccc2ncc(/C=C/C(=O)O)cc2c1)c1c(Cl)ccc(F)c1Cl	–
–	42 nM	> 100 µM	C[C@H](Oc1ccc2ncc(O)c(C3CC3)c2c1)c1c(Cl)ccc(F)c1Cl	–
–	150 nM	> 100 µM	C[C@H](Oc1cc(B(O)O)c2ncc(/C=C/C(=O)O)c(C3CC3)c2c1)c1c(Cl)ccc(F)c1Cl	–
–	25 nM	> 100 µM	C[C@H](Oc1ccc2ncc(/C=C/C(=O)O)c(CF)c2c1)c1c(Cl)ccc(F)c1Cl	–
3.1	5 nM	> 100 µM	C[C@H](Oc1ccc2ncc(/C=C/C(=O)N3CC[C@@H](N)[C@H](C(=O)O)C3)c(C3CC3)c2c1)c1c(Cl)ccc(F)c1Cl (mixture of isomers)	–
2.6	46 nM	> 100 µM	C[C@H](Oc1nccc(N(c2nc(C(=O)O)cs2)C2CC2)n1)c1c(Cl)ccc(F)c1Cl	–
1.7	13 nM	> 100 µM	C[C@H](Oc1ccc2c(c1)c(C1CC1)c(/C=C/C(=O)O)c[n+]2[O-])c1c(Cl)ccc(F)c1Cl	–
4.3	3400 nM	> 100 µM	C[C@H](Oc1ccnc(C2CC2)c1)c1c(Cl)ccc(F)c1Cl	MIC [12]: > 100 µM
2.9	10 nM	> 100 µM	C[C@H](Oc1cc(CO)c2ncc(/C=C/C(=O)O)c(C3CC3)c2c1)c1c(Cl)ccc(F)c1Cl	–
> 5.5	7 nM	> 100 µM	C[C@H](Oc1ccc2ncc(/C=C/C(N)=O)c(C3CC3)c2c1)c1c(Cl)ccc(F)c1Cl	–
3.9	460 nM	> 100 µM	C[C@H](Oc1ccc(/C=C/C(=O)O)c(CC2CC2)c1)c1c(Cl)ccc(F)c1Cl	MIC [12]: 50 µM (≈ 20.5 µg/mL)
3.8	32 nM	> 100 µM	C[C@H](Oc1ccc2nc(OCCN)c(CCC(=O)O)c(C3CC3)c2c1)c1c(Cl)ccc(F)c1Cl	–
3	39000 nM	–	CC(Oc1ccc2ncc(/C=C/C(=O)O)cc2c1)C1CCCCC1 (stereo not drawn)	–

Further lines, the compound ahead of its results:

Structure (SMILES)	logD [1]	IC50 [2]	MIC [3]	also measured
Cc1cnn(C)c1[C@H](C)Oc1ccc2ncc(/C=C/C(=O)O)c(C3CC3)c2c1	0.9	> 10000 nM	> 100 µM	–
CC(Oc1ccc2ncc(/C=C/C(=O)O)c(C3CC3)c2c1)c1c(Cl)cccc1C#N (stereo not drawn)	2.2	24 nM	> 100 µM	–
C[C@H](Oc1ccc2ncc(CCC(=O)O)c(C3CC3)c2c1)c1c(Cl)ccc(F)c1Cl	4.1	7 nM	> 100 µM	–
O=C(O)/C=C/c1cnc2ccc(O[C@@H](CO)c3c(Cl)cccc3Cl)cc2c1C1CC1	2	550 nM	> 100 µM	–
C[C@H](Oc1ccc2ncc(/C=C/C(=O)NS(C)(=O)=O)c(C3CC3)c2c1)c1c(Cl)cccc1Cl	2.9	2 nM	35 µM	–
C[C@H](Oc1ccc2ncc(/C=C/C(=O)O)c(C3CC3)c2c1)c1c(Cl)cccc1Cl	3.7	2 nM	30 µM	–
C[C@H](Oc1ccc(NC(=O)CC(N)=O)c(C2CC2)n1)c1c(Cl)ccc(F)c1Cl	3.7	27 nM	> 100 µM	MIC [12]: 12 µM (≈ 5.12 µg/mL)
C[C@H](Oc1cccc(C2CC2)n1)c1c(Cl)ccc(F)c1Cl	4.9	> 10000 nM	> 100 µM	MIC [12]: > 100 µM
Cc1c(/C=C/C(=O)O)ccc2ccc(O[C@@H](C)c3c(Cl)ccc(F)c3Cl)cc12	4.5	32 nM	> 100 µM	–
C[C@H](Oc1ccc2ncc(/C=C/C(=O)O)c(O)c2c1)c1c(Cl)ccc(F)c1Cl	1.9	5000 nM	> 100 µM	–
C[C@H](Oc1ccc2ncc(/C=C/c3nn[nH]n3)c(C3CC3)c2c1)c1c(Cl)ccc(F)c1Cl	3.7	3 nM	12 µM	–
C[C@H](Oc1ccc(NC(=O)CC(=O)O)c(C2CC2)n1)c1c(Cl)ccc(F)c1Cl	1.4	12 nM	> 100 µM	MIC [12]: 31 µM (≈ 13.2 µg/mL)
C[C@H](Oc1ccc(/C=C/C(=O)O)cc1)c1c(Cl)ccc(F)c1Cl	2.8	5800 nM	> 100 µM	MIC [12]: > 100 µM
C[C@H](Oc1ccc2ncc(/C=C/C(=O)O)c(C#N)c2c1)c1c(Cl)ccc(F)c1Cl	2.3	110 nM	> 100 µM	–
Cc1c(/C=C/C(=O)O)cnc2ccc(O[C@@H](C)c3c(Cl)ccc(F)c3Cl)cc12	3	20 nM	> 100 µM	–
C[C@H](Oc1ccc2c(c1)CN(CCC(=O)O)CC2)c1c(Cl)ccc(F)c1Cl	–	> 50000 nM	> 100 µM	–

Structure (SMILES)	logD [1]	IC50 [2]	MIC [3]	also measured
C[C@H](Oc1ccc(NC(=O)CC(N)=O)c(C2CC2)c1)c1c(Cl)ccc(F)c1Cl	3.9	40 nM	> 100 µM	MIC [12]: 25 µM (≈ 10.6 µg/mL)
C[C@H](Oc1ccc2ncc(/C=C/C(=O)O)c(C3CC3)c2c1)c1c(Cl)ccnc1Cl	2.3	18 nM	> 100 µM	–
C[C@H](Oc1ccc2c(=O)nc(/C=C/C(=O)O)n(C3CC3)c2c1)c1c(Cl)ccc(F)c1Cl	–	7200 nM	> 100 µM	–
C[C@H](Oc1ccc2ncc(/C=C/C(=O)O)c(C(F)F)c2c1)c1c(Cl)ccc(F)c1Cl	3.1	8 nM	25 µM	–
C[C@H](Oc1cnc2cnc(/C=C/C(=O)O)c(C3CC3)c2c1)c1c(Cl)cccc1Cl	–	12 nM	> 100 µM	–
C[C@H](Oc1ccc2ncc(/C=C/C(=O)O)c(C3COC3)c2c1)c1c(Cl)ccc(F)c1Cl	–	120 nM	> 100 µM	–
C[C@H](Oc1ccc(/C=C/C(=O)O)c(C2CC2)c1)c1c(Cl)ccc(F)c1Cl	3.6	100 nM	> 100 µM	MIC [12]: 100 µM (≈ 39.5 µg/mL)
Cc1cc(O[C@@H](C)c2c(Cl)ccc(F)c2Cl)ccc1/C=C/C(=O)O	3.2	2200 nM	> 100 µM	MIC [12]: > 100 µM
C[C@H](Oc1ccc(NC(=O)CC(=O)O)c(C2CC2)c1)c1c(Cl)ccc(F)c1Cl	1.9	60 nM	> 100 µM	MIC [12]: 71 µM (≈ 30.3 µg/mL)
C[C@H](Oc1ccc2ncc(/C=C/C(=O)NC(CC(=O)O)CC(=O)O)c(C3CC3)c2c1)c1c(Cl)ccc(F)c1Cl	0.4	9 nM	> 100 µM	–
C[C@H](Oc1ccc2ncc(/C=C/C(=O)O)c(C3CC3)c2c1)c1c(Cl)ccc(F)c1Cl	4.1	4 nM	79 µM	–
C[C@H](Oc1ccnc(C2CC2)n1)c1c(Cl)ccc(F)c1Cl	4.2	450 nM	> 100 µM	MIC [12]: > 100 µM
C[C@H](Oc1ccc2ncc(/C=C/c3nn[nH]n3)c(C(F)F)c2c1)c1c(Cl)cccc1Cl	3.3	8 nM	25 µM	MIC [4]: 25 µM (≈ 11.6 µg/mL); MIC [5]: 50 µM (≈ 23.1 µg/mL); MIC [6]: 1.6 µM (≈ 0.74 µg/mL); MIC [7]: 50 µM (≈ 23.1 µg/mL); Selectivity ratio [8]: 31; Activity [9]: Non-Toxic; Activity [10]: Non-Toxic; Activity [11]: Non-Toxic
C[C@H](Oc1ccc2ncc(S(=O)(=O)CC(=O)O)c(C3CC3)c2c1)c1c(Cl)ccc(F)c1Cl	2.5	78 nM	> 100 µM	–
CC(C)Oc1ccc2ncc(/C=C/C(=O)O)c(C3CC3)c2c1	–	> 10000 nM	> 100 µM	–
C[C@H](Oc1ccc2ncc(/C=C/S(=O)(=O)O)c(C3CC3)c2c1)c1c(Cl)ccc(F)c1Cl	2.5	14 nM	> 100 µM	–
